Drawing on a melting point compilation (Tetko et al.), this text covers melting point for 119 compounds.

As usually defined, the melting point is the temperature, or range, at which the solid turns liquid.

`CC(=O)c1ccc(Oc2ccc(C(=O)O)cc2)cc1` returned a melting point of 161 to 163 °C. The figure for `CC(C)(NS(C)(=O)=O)C(=O)O` is 71 to 73 °C; for `NC(=O)N1CCc2cc(S(=O)(=O)F)ccc21` it is 218 to 220 °C. In turn, `CCOC(=O)c1cnc2c(C)cc(C)cc2c1Cl` returned a melting point of 72 to 74 °C. On to `CCCn1cc(C(=O)O)c2ccccc21`, for which the melting point was 155 to 157 °C. The figure for `COc1ccc(Oc2ccc(C=O)cc2[N+](=O)[O-])cc1` is 67 to 69 °C. Next, `NC(=O)c1cccc2cccnc12`: 168 to 170 °C. The figure for `Cc1oc(C(=O)O)cc1S(=O)(=O)Cl` is 114 to 116 °C. `Cc1cccc(N2C(=O)NC(CCC(=O)O)C2=O)c1` (centres undefined): the melting point is 158 to 160 °C. `Cc1cc(O)cc(=O)n1C1CC1` gave a melting point of 264 to 266 °C. The figure for `COC(=O)c1cccc(OCC(F)(F)F)c1` is 56 to 58 °C; for `CC(=O)N(C)c1nc(CCl)cs1` it is 139 to 141 °C.

As to `OCc1nnc(-c2ccccc2Cl)o1`, the melting point is 101 to 103 °C. Next, `Nn1ccccc1=O`: 41 to 43 °C; `COc1ccc(COc2cc(Br)ccc2C(F)(F)F)cc1`: 32 to 34 °C. For `OCc1cnn(-c2ccccc2)c1`, the melting point lay within 63 to 67 °C.

`CC(C)(C)c1noc(-c2cc(Cl)ccc2N)n1` displayed a melting point of 132 to 134 °C.

For `NNC(=O)c1ccc(COc2cccc3cccnc23)cc1`, the melting point is 135 to 137 °C. Next, `COc1cc2cc(C(=O)O)[nH]c2cc1OC`: 199 to 201 °C; `Nc1ccc(-c2cn3c(n2)CCCC3)cc1`: 209 to 211 °C; `CC(O)c1ccc(I)cc1` (centres undefined): 43 to 45 °C. The figure for `O=C(O)c1cnc(Cl)cc1Cl` is 158 to 160 °C; for `O=C(O)C1(c2ccc3c(c2)OCCO3)CCCC1` it is 165 to 167 °C; for `O=C(O)c1nnc2c(C(F)(F)F)cccn12` it is 139 to 141 °C. The figure for `O=C(O)c1ccc(OCC(F)(F)F)nn1` is 143 to 145 °C; for `COC(=O)c1cc(Cl)c(=O)[nH]c1C` it is 239 to 241 °C; for `Cc1ccc(CNC(=O)c2ccccc2N)cc1` it is 140 to 142 °C. Consider `Cc1cc(C)c([N+](=O)[O-])c(=O)[nH]1`, for which the melting point fell in the range of 179 to 181 °C.

`O=C(O)c1ccc(-c2ccncc2)[nH]c1=O` showed a melting point of 315 to 317 °C.

`Cc1cc(C)c(S(N)(=O)=O)cc1C(=O)O`: the melting point is 252 to 254 °C. `c1cc(-c2nnc[nH]2)ccn1` gave a melting point of 225 to 227 °C. On to `O=C(O)Cc1cc(=O)[nH]c(=O)[nH]1`, for which the melting point was in the range of 324 to 326 °C. The figure for `O=C(CCl)N(Cc1ccc(F)cc1)C12CC3CC(CC(C3)C1)C2` is 129 to 131 °C; for `CC(O)c1ccc(N2CCNC(=O)C2)cc1Cl` (centres undefined) it is 186 to 188 °C. Next, `O=C(CCl)N1CCN(c2ccc([N+](=O)[O-])cc2)CC1`: 129 to 131 °C. The figure for `O=c1[nH]c(-c2ccccn2)no1` is 198 to 200 °C; for `CCOC(=O)c1cn2c(Br)ccc2cn1` it is 138 to 140 °C. In turn, `OC1CCN(c2cnnc3ccccc23)CC1` yielded a melting point of 84 to 86 °C. The figure for `Cc1cccc2[nH]c(CCC(=O)O)nc12` is 238 to 240 °C. The figure for `O=C(NC1CCNCC1)C1CCOCC1` is 156 to 158 °C. For the compound `COC(=O)C1=NN(c2ccccc2)C(c2ccccc2)C1` (centres undefined), the melting point fell in the range of 125 to 127 °C.

Turning to `CC(C)(C)N1C(=O)CC(C(=O)O)C1c1ccc(Cl)c(F)c1` (centres undefined), the melting point was in the range of 249 to 251 °C. The figure for `COc1n[nH]c(N)c1C#N` is 179 to 181 °C. The figure for `Nc1nc2cc3c(cc2s1)OCCO3` is 203 to 205 °C; for `O=S(=O)(Nc1cccc(O)c1)c1ccccc1` it is 127 to 129 °C; for `CC(O)Cc1cc(F)ccc1Br` (centres undefined) it is 56 to 58 °C. The figure for `COC(=O)c1coc(C(=O)CCl)c1` is 97 to 99 °C. The compound `O=C(O)CCCOc1ccccc1Br` showed a melting point of 87 to 89 °C. The figure for `Cc1nnc(S)n1C1CC1` is 132 to 134 °C; for `O=C(O)C1CCCN1C(=O)c1ccc(Cl)s1` (centres undefined) it is 127 to 129 °C; for `N#Cc1ccc(S(=O)(=O)Cl)c(F)c1` it is 61 to 63 °C. The figure for `O=C(O)c1ccc(-c2ccc(OC(F)F)cc2)s1` is 209 to 211 °C; for `O=C(O)C1Cc2nc[nH]c2C(c2ccccc2)N1` (centres undefined) it is 209 to 211 °C; for `CCn1ccnc(N)c1=O` it is 119 to 121 °C. The figure for `O=C(O)c1ccnc(N2CCCC2)n1` is 205 to 207 °C; for `CC(=O)Nc1ccc(N2C(=O)c3ccc(C(=O)O)cc3C2=O)cc1` it is 379 to 381 °C. For the compound `COc1ccc(C2(C(=O)O)CCOCC2)cc1`, the melting point lay in the range of 167 to 169 °C. Next, `Nc1nncc(-c2cc(F)ccc2F)n1`: 239 to 241 °C; `O=C1CCOc2ccccc2N1`: 109 to 111 °C; `O=C(Cc1ncc[nH]1)c1ccc(Cl)cc1F`: 140 to 142 °C.

`Oc1ccc(-n2cnnn2)cc1` returned a melting point of 209 to 211 °C. The figure for `O=c1c2sccc2nc(S)n1Cc1ccccc1` is 249 to 251 °C; for `COc1cccc(-c2noc(CCl)n2)c1` it is 38 to 40 °C; for `O=C(O)c1ccc(-c2ccc(Cl)c(Cl)c2)s1` it is 253 to 255 °C. Take `O=C1c2ccccc2C(=O)N1C1CCC(O)CC1` (centres undefined): the melting point was 174 to 176 °C. The figure for `ClCc1csc(-c2ccsc2)n1` is 64 to 66 °C; for `Cc1ccc(SCCNC(=O)CCl)cc1` it is 114 to 116 °C. The figure for `Cc1ccc(-n2nnnc2S)cc1` is 112 to 114 °C; for `Nc1cc(Cl)ccc1C(=O)N1CCCCC1CCO` (centres undefined) it is 115 to 117 °C; for `CNCC(=O)N(C)c1ccccn1` it is 108 to 110 °C.

The compound `O=C(O)c1ccc(Cl)[nH]c1=O` displayed a melting point of 224 to 226 °C.

Consider `COc1ccc(C=O)cc1Cl`, for which the melting point lay within 56 to 58 °C. The compound `O=C1C=CC(=O)N1CCc1ccc([N+](=O)[O-])cc1` registered a melting point of 61 to 63 °C.

As to `COC(=O)c1c(Cl)c([N+](=O)[O-])cc([N+](=O)[O-])c1Cl`, the melting point was 97 to 99 °C.

For the compound `O=Cc1cn(-c2ccccc2)nc1-c1ccccc1`, the melting point lay in the range of 144 to 148 °C. Next, `O=C(NO)c1cccs1`: 124 to 126 °C; `NCc1ccccc1N1CCCC(C(N)=O)C1` (centres undefined): 97 to 99 °C.

`O=C(O)C1CCCN(S(=O)(=O)c2ccc(Cl)cc2)C1` (centres undefined) registered a melting point of 202 to 204 °C. Next, `O=C(O)c1cc(OC(F)F)cc(OC(F)F)c1`: 79 to 81 °C.

Take `COc1cc(-c2noc(CCl)n2)ccc1C`: the melting point fell in the range of 73 to 75 °C. The figure for `Clc1ccc2nnc(C3CC3)n2n1` is 117 to 119 °C; for `Cc1cc(N)ccc1N1CCSCC1` it is 67 to 69 °C. Next, `CCN(CC)S(=O)(=O)c1cccc(NC(=O)CCl)c1`: 82 to 84 °C. Next, `Cc1ccc(-n2nc(C(=O)O)ccc2=O)cc1Cl`: 240 to 242 °C; `O=C(O)CCC(=O)N1CCOc2ccccc21`: 109 to 111 °C. On to `CN1CCN(S(=O)(=O)c2ccc(N)cc2)CC1`, for which the melting point was in the range of 231 to 233 °C. Next, `CCOCCCNC(=O)CCl`: 25 to 27 °C; `N#Cc1ccc(Oc2cccc(N)c2)cc1`: 86 to 88 °C; `NNc1cc(C(F)(F)F)nc2ncnn12`: 230 to 232 °C. Next, `Cc1sc(N)nc1-c1c[nH]c2ncccc12`: 240 to 242 °C; `NNC(=O)c1ccc(O)c(Cl)c1`: 280 to 282 °C; `COc1cc(C=O)c([N+](=O)[O-])cc1OCC(F)F`: 139 to 141 °C.

On to `Cc1c(C(=O)O)oc2c(Br)cccc12`, for which the melting point was in the range of 204 to 206 °C. The figure for `CC1(c2cccc(C(F)(F)F)c2)NC(=O)NC1=O` (centres undefined) is 219 to 221 °C.

The compound `Cc1cc(C)c2c(c1)NC(=O)C2=O` had a melting point of 233 to 235 °C. `Cn1cc(C=O)c(=O)n(C)c1=O`: the melting point fell in the range of 121 to 123 °C.

For `Cc1[nH]c(-c2cccnc2)nc(=NN)c1C`, the melting point was in the range of 194 to 196 °C. The compound `Cc1cc(C)c(C(N)=O)c(N2CCCC2)n1` returned a melting point of 174 to 176 °C. The figure for `O=C(Nc1ccc(-n2cccn2)c(F)c1)OCC(F)(F)F` is 156 to 158 °C. `O=C(O)c1cc(-c2ccccc2)c(N2CCOCC2)s1` registered a melting point of 172 to 174 °C. Next, `Cc1c[nH]c(=O)n1-c1ccc(Cl)cc1`: 185 to 187 °C; `CC(C)(C)OC(=O)N1C(=O)N(CC#N)C(C)(C)C1=O`: 149 to 151 °C; `CCOC(=O)c1c(-c2ccccc2)oc2ccc(O)cc12`: 152 to 154 °C. The figure for `CC1CCN(C(=O)c2ccccc2N)CC1` is 59 to 61 °C; for `FC(F)(F)c1ccc2sc(Cl)nc2c1` it is 57 to 59 °C; for `OC1CCCCC1c1ccc(F)cc1` (centres undefined) it is 71 to 73 °C.

Compound `COc1ccc2[nH]c3c(c2c1)C(=O)CCC3` showed a melting point of 269 to 271 °C. The figure for `O=C(O)C=Cc1ccc(S(=O)(=O)NCc2ccco2)cc1` is 213 to 215 °C; for `Cc1nc([N+](=O)[O-])cn1CCC(=O)O` it is 217 to 219 °C; for `Cn1cnc(-c2cccc(N)c2)n1` it is 184 to 186 °C. The figure for `Cc1nc2ncnn2c(C)c1CCC(=O)O` is 224 to 226 °C; for `Cc1nc(-c2ccc(C)c(NC(=O)CCl)c2)n[nH]1` it is 297 to 299 °C; for `Nc1cc(F)c(Br)cc1[N+](=O)[O-]` it is 166 to 168 °C. The compound `COc1ccccc1Nc1nnc(S)s1` returned a melting point of 182 to 184 °C. Next, `O=C1OC(C(=O)O)Cc2ccccc21` (centres undefined): 151 to 153 °C. The figure for `Nc1ccc([N+](=O)[O-])c(Br)c1` is 169 to 171 °C; for `Cc1noc(C)c1C(C)CC(=O)O` (centres undefined) it is 95 to 97 °C; for `Cc1cc(C(=O)O)c(N)c([N+](=O)[O-])c1` it is 249 to 251 °C. Next, `Cc1cc(Br)cc([N+](=O)[O-])c1O`: 89 to 91 °C.
